Compound: OCc1c[nH]c2ccccc12 [Indole-3-carbinol]
Assay: relative viability (nuclei count vs DMSO), 5 days (fraction); higher = more cells survive
Outline: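 After an overnight hold at 37 °C, lung cancer cell lines in 1536-well plates were pinned with five library-drug doses (not always all listed), each √10 from the next, on vehicle-anchored plates. The cells stayed 5 days without fresh medium, then a one-step fix, permeabilisation and Hoechst stain preceded 4× imaging and MetaXpress nuclear counts. A plate passed only with control CV under 25% and at least one doubling. Viability is the median, over plates, of treated-well nuclei relative to vehicle-well nuclei.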

Cell Line	relative viability (0.253 µM)	relative viability (0.8 µM)	relative viability (2.53 µM)	relative viability (8 µM)
NCI-H661	0.957	0.904	1.03	0.988
NCI-H727	0.963	0.943	0.969	1.05
NCI-H838	1.01	0.935	0.98	0.935
NCI-H1355	1	1.11	0.97	0.961
NCI-H1395	0.945	0.92	0.929	0.881
NCI-H1437	1.01	1.01	0.992	0.945
NCI-H1563	1.02	0.883	1.09	0.908
NCI-H1650	1.03	0.794	0.943	0.882
NCI-H1651	0.994	0.97	1.05	0.945
NCI-H1666	0.998	1.04	0.961	0.998
NCI-H1703	0.962	0.908	1.05	0.904
NCI-H1734	0.997	0.866	0.973	0.932
NCI-H1755	1.05	0.997	0.993	0.929
NCI-H1792	0.88	0.833	0.811	0.984
NCI-H1793	0.943	0.841	1.04	0.906
NCI-H1915	1.01	1.01	0.956	0.976
NCI-H1944	0.971	0.793	0.955	0.962
NCI-H1975	1.04	0.93	1	0.897
NCI-H1993	1.06	1.07	0.872	0.919

Cell Line	relative viability (0.253 µM)	relative viability (0.8 µM)	relative viability (2.53 µM)	relative viability (8 µM)
NCI-H2009	1.05	1.03	1.01	0.951
NCI-H2023	0.952	0.963	0.984	0.935
NCI-H2085	1.01	1.03	1.03	0.949
NCI-H2087	1.18	1.11	1.01	0.896
NCI-H2126	0.986	1.01	0.997	0.957
NCI-H2170	0.999	1	0.929	0.955
NCI-H2228	1.09	0.84	1.19	0.999
NCI-H2342	1.08	0.907	1.01	1.02
NCI-H2347	1.08	1.07	1.09	0.961
NCI-H2405	1.06	1.01	1.06	1.03
NCI-H3122	1.07	0.986	1.02	0.983
PC-3 [JPC-3]	1.05	1.04	1.05	0.953
PC-14	1.04	0.948	1	0.953
RERF-LC-KJ	1.01	0.999	0.947	0.92
SK-LU-1	1.11	0.969	1.03	0.996
SK-MES-1	1.02	1.08	0.991	0.953
SW 900	0.922	0.772	0.903	0.764
SW 1573	0.954	1.08	1.12	0.949
UMC-11	0.977	1.03	0.966	0.983
